From the supplement of paper PMC10307832

Key:
Experiment in all cases: relative viability (nuclei count vs DMSO), 5 days (fraction); higher = more cells survive
FH535 + Tozasertib = compound: CC1=C(C=CC(=C1)[N+](=O)[O-])NS(=O)(=O)C2=C(C=CC(=C2)Cl)Cl [FH535] + Cc1cc(Nc2cc(N3CCN(C)CC3)nc(Sc3ccc(NC(=O)C4CC4)cc3)n2)n[nH]1 [Tozasertib] (partner 0.1 µM)
Procedure, shortened: (§1)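 Nuclei were stained with Hoechst during a one-step fixation (final 0.05% Triton X-100, 1% formaldehyde, 1 ug/ml Hoechst) carried out 5 days after dosing, then counted on 4× images. The cells, lung cancer lines in 1536-well plates, had been dosed by pin tool the day after seeding with one drug alone or a fixed anchor-drug dose plus five library-drug doses (not always all listed) in √10 steps. Relative viability is the nuclei count in treated wells divided by that in vehicle wells, and each value is the median of duplicate plates.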

FH535 + Trametinib = compound: CC1=C(C=CC(=C1)[N+](=O)[O-])NS(=O)(=O)C2=C(C=CC(=C2)Cl)Cl [FH535] + CC(=O)Nc1cccc(-n2c(=O)n(C3CC3)c(=O)c3c(Nc4ccc(I)cc4F)n(C)c(=O)c(C)c32)c1 [Trametinib] (partner 0.02 µM)
Procedure, shortened: as §1

FH535 + Navitoclax = compound: CC1=C(C=CC(=C1)[N+](=O)[O-])NS(=O)(=O)C2=C(C=CC(=C2)Cl)Cl [FH535] + CC1(C)CCC(c2ccc(Cl)cc2)=C(CN2CCN(c3ccc(C(=O)NS(=O)(=O)c4ccc(N[C@H](CCN5CCOCC5)CSc5ccccc5)c(S(=O)(=O)C(F)(F)F)c4)cc3)CC2)C1 [Navitoclax] (partner 0.5 µM)
Procedure, shortened: as §1

FH535 + Olaparib = compound: CC1=C(C=CC(=C1)[N+](=O)[O-])NS(=O)(=O)C2=C(C=CC(=C2)Cl)Cl [FH535] + O=C(c1cc(Cc2n[nH]c(=O)c3ccccc23)ccc1F)N1CCN(C(=O)C2CC2)CC1 [Olaparib] (partner 8 µM)
Procedure, shortened: as §1

FH535 + OSI-027 = compound: CC1=C(C=CC(=C1)[N+](=O)[O-])NS(=O)(=O)C2=C(C=CC(=C2)Cl)Cl [FH535] + COc1cccc2cc(-c3nc([C@H]4CC[C@H](C(=O)O)CC4)n4ncnc(N)c34)[nH]c12 [OSI-027] (partner 0.5 µM)
Procedure, shortened: as §1

Cell Line | relative viability (FH535 + Tozasertib; first compound 0.04 µM) | relative viability (FH535 + Tozasertib; first compound 0.1265 µM) | relative viability (FH535 + Tozasertib; first compound 0.4 µM) | relative viability (FH535 + Tozasertib; first compound 1.265 µM) | relative viability (FH535 + Trametinib; first compound 0.04 µM) | relative viability (FH535 + Trametinib; first compound 0.1265 µM) | relative viability (FH535 + Trametinib; first compound 0.4 µM) | relative viability (FH535 + Trametinib; first compound 1.265 µM) | relative viability (FH535 + Navitoclax; first compound 0.04 µM) | relative viability (FH535 + Navitoclax; first compound 0.1265 µM) | relative viability (FH535 + Navitoclax; first compound 0.4 µM) | relative viability (FH535 + Navitoclax; first compound 1.265 µM) | relative viability (FH535 + Olaparib; first compound 0.04 µM) | relative viability (FH535 + Olaparib; first compound 0.1265 µM) | relative viability (FH535 + Olaparib; first compound 0.4 µM) | relative viability (FH535 + Olaparib; first compound 1.265 µM) | relative viability (FH535 + OSI-027; first compound 0.04 µM) | relative viability (FH535 + OSI-027; first compound 0.1265 µM) | relative viability (FH535 + OSI-027; first compound 0.4 µM) | relative viability (FH535 + OSI-027; first compound 1.265 µM)
NCI-H2347 | 0.633 | 0.461 | 0.522 | 0.631 | 0.276 | 0.318 | 0.3 | 0.291 | 0.684 | 0.792 | 0.871 | 0.705 | 0.525 | 0.595 | 0.553 | 0.498 | 0.405 | 0.486 | 0.306 | 0.37
NCI-H2405 | 0.746 | 0.755 | 0.782 | 0.579 | 0.56 | 0.651 | 0.611 | 0.531 | 0.762 | 0.976 | 0.868 | 0.448 | 0.882 | 0.832 | 0.765 | 0.524 | 0.605 | 0.62 | 0.564 | 0.439
NCI-H3122 | 0.329 | 0.367 | 0.475 | 0.369 | 0.188 | 0.274 | 0.2 | 0.22 | 1.02 | 1.05 | 1.01 | 0.947 | 0.631 | 0.6 | 0.581 | 0.48 | 0.919 | 1.06 | 0.885 | 0.751
PC-3 [JPC-3] | 0.846 | 0.901 | 0.795 | 0.513 | 0.726 | 0.829 | 0.691 | 0.607 | 0.778 | 0.753 | 0.762 | 0.57 | 1.12 | 1.08 | 1.04 | 0.733 | 0.828 | 0.704 | 0.624 | 0.592
PC-14 | 0.507 | 0.693 | 0.615 | 0.617 | 0.652 | 0.815 | 0.895 | 0.693 | 0.972 | 1.1 | 1.01 | 0.941 | 0.242 | 0.324 | 0.297 | 0.233 | 0.83 | 0.9 | 0.896 | 0.783
RERF-LC-KJ | 0.515 | 0.52 | 0.473 | 0.386 | 0.862 | 0.921 | 0.869 | 0.744 | 1.15 | 0.784 | 1.11 | 0.719 | 0.904 | 0.891 | 0.856 | 0.516 | 0.538 | 0.616 | 0.6 | 0.4
SK-LU-1 | 0.319 | 0.38 | 0.316 | 0.32 | 0.476 | 0.49 | 0.501 | 0.418 | 0.89 | 1.01 | 0.688 | 0.622 | 0.48 | 0.439 | 0.456 | 0.407 | 0.359 | 0.347 | 0.324 | 0.235
SK-MES-1 | 0.952 | 0.954 | 0.751 | 0.658 | 0.503 | 0.541 | 0.577 | 0.552 | 1.16 | 1.22 | 1.12 | 0.929 | 0.729 | 0.756 | 0.6 | 0.497 | 0.679 | 0.573 | 0.565 | 0.435
SW 1573 | 0.171 | 0.164 | 0.215 | 0.161 | 0.686 | 0.528 | 0.651 | 0.376 | 0.938 | 1.01 | 0.837 | 0.768 | 0.399 | 0.497 | 0.473 | 0.34 | 0.601 | 0.613 | 0.67 | 0.445
UMC-11 | 0.189 | 0.213 | 0.196 | 0.202 | 0.663 | 0.525 | 0.576 | 0.684 | 0.312 | 0.315 | 0.298 | 0.262 | 0.288 | 0.335 | 0.367 | 0.343 | 0.413 | 0.561 | 0.431 | 0.416
